From paper PMC8231113, “Protein Secondary Structure Affects Glycan Clustering in Native Mass Spectrometry” (Life, 2021)

How the values were obtained:
[1] = test system: mutated hNoV GII.4 MI001 P dimer; assay: Native MS corrected glycan binding to mutated MI001 P domain; parameters: species or system human norovirus (hNoV); details: cyt c reference; 100 µM glycan
[2] = biological target: wildtype GII.4 Saga P dimer; details: wildtype P dimer; read-out: KD determined by NMR; cited from earlier work

Row | SMILES | corrected binding to mutated MI001 P dimer [1] | Kd [2]
1 | CC(=O)N[C@H]1[C@H](O[C@H]2[C@@H](O)[C@@H](CO)O[C@H](O[C@@H]3[C@H](O)[C@@H](O)[C@H](O[C@H]4[C@H](O)[C@@H](O)C(O)O[C@@H]4CO)O[C@@H]3CO)[C@@H]2O)O[C@H](CO)[C@H](O)[C@@H]1O (stereo partly drawn) [Gb4, GalNAc β1-3 Galα1-4Galβ1-4Glc] | basically no binding | –
2 | CC(=O)N[C@H]1C(O)O[C@H](CO)[C@@H](O)[C@@H]1O[C@@H]1O[C@H](CO)[C@H](O)[C@H](O[C@H]2O[C@H](CO)[C@H](O)[C@H](O)[C@H]2O)[C@H]1O[C@@H]1O[C@@H](C)[C@@H](O)[C@@H](O)[C@@H]1O (some centres unmarked) [HBGA B, Galα1-3(Fucα1-2)Galβ1-3GlcNAc] | – | 12 mM
